{"source": "patent US20240050409A1", "about": "“Methods and Compositions for Treating Psychotic Disorders” (SOUND PHARMACEUTICALS INCORPORATED, priority 2014, published 2024)", "key": {"[1]": {"tested_on": "perineuronal nets (PNN) in the PFC of NVHL rats", "test": "WFA staining of perineuronal nets (PNN) around PVI in PFC of NVHL rats", "type": "in vivo, Sprague-Dawley rats", "conditions": "adult NVHL rats, juvenile treatment", "description": "To determine the types of interneurons expressing oxidative stress in NVHL rats, 8-oxo-dG with PV, calbindin (CB) and calretinin (CR) was co-labeled. […] About 50% of PVI were co-labeled with 8-oxo-dG, indicating oxidative stress is pervasive in this cell population. A marker of PVI maturation is Wisteria Floribunda agglutinin (WFA), a lectin that recognizes the perineuronal nets (PNN) enwrapping mature cortical PVI. […] PVI may be highly exposed to increased oxidative stress because they make up the majority of fast-spiking interneurons and their high energy metabolism may generate more reactive oxygen species than non-fast spiking neurons.\nAntioxidant pretreatment regimen: NAC (BioAdvantexPharma, Mississauga, Ontario, Canada) was administered in the drinking water at 900 mg/l. NAC treatment started at P5 or at P35, and previous work in mice has shown that NAC consumed by the dam is transmitted to the pups through her milk (das Neves Duarte et al., 2012). NAC treatment ended at P50. Fresh solutions were prepared every 2-3 days. Ebselen (Sound Pharmaceuticals Inc., Seattle, WA) was administered i.p. 5 days a week starting at P35 until the day of PPI testing (P60). Stock ebselen solution (20 mg/ml DMSO, frozen aliquots) was diluted 1:5 in sterile water and administered at a dose of 10 mg/kg. Control animals received an equivalent concentration of DMSO diluted 1:5 in water. […]"}, "NVHL rats": {"tested_on": "NVHL rats", "test": "Mismatch negativity (MMN), auditory evoked potentials, NVHL rats", "type": "in vivo, Sprague-Dawley rats", "conditions": "juvenile treatment", "protocol": "Abnormal excitation-inhibition balance in adult NVHL rats can yield altered information processing that would be prevented by NAC treatment if it depended on oxidative stress. Mismatch negativity (MMN) was tested using auditory evoked potentials in an oddball paradigm in SHAM (n=6), NVHL (n=3), and NAC-treated NVHL rats (n=3). MMN has high translational relevance, as it is attenuated in schizophrenia patients (Javitt et al., 1993) and in animal models (Ehrlichman et al., 2009). Electroencephalographic (EEG) electrodes were implanted in NVHL, NAC-treated NVHL, and SHAM rats. This observation is consistent with the effect of NAC on MMN in patients (Lavoie et al., 2008), and indicates the NVHL model reproduces an important disease marker that can be prevented by juvenile antioxidant treatment. As MMN depends on NMDA receptor function (Umbricht et al., 2000) and NMDA hypofunction in PVI is suspected in schizophrenia, it is possible that MMN improvement with NAC results from restored PVI activity. […]\nMismatch Negativity: NVHL, NAC-treated NVHL, and sham female rats were implanted with chronic EEG electrodes under isoflurane anesthesia. […] A difference wave was constructed by subtracting the standard wave from the deviant wave, and MMN was quantified by measuring the area under the curve in the period between 35 and 100 ms after the stimulus. […]"}, "SZ": {"tested_on": "SZ", "conditions": "in vivo; cited from earlier work"}}, "note": "Entries after “also recorded” stand apart in the source; their conditions may differ."}
{"smiles": "CC(=O)N[C@@H](CS)C(=O)O", "note": "[NAC, N-acetyl cysteine]", "values": [{"measurement": "effect on reduced WFA staining / WFA-positive PVI (PNN)", "setting": "[1]", "result": "restored; also recorded: prevented"}, {"measurement": "effect on MMN deficit", "setting": "NVHL rats", "result": "improving"}, {"measurement": "mismatch negativity in SZ", "setting": "SZ", "result": "improved"}]}
